# Laboratory results: patent US9212168B2 (priority 2011, dated 2015)
# Biological target: HCV genotype 1b replicon
# Experiment: HCV genotype 1b replicon assay (Renilla luciferase readout)
# Type: cell-based, hepatitis C virus
# Conditions: HCV genotype 1b replicon
# Source text: Assay 1: HCV Genotype 1b Replicon Assay
# The HCV genotype 1b replicon cell line was obtained from Apath LLC (Brooklyn, N.Y.) (APC144; Huh7 cell background). This subgenomic replicon contains the N-terminus of the HCV core protein fused to the neomycin-resistance selectable marker. The EMCV IRES lies downstream and drives expression of humanized Renilla luciferase fused to the non-structural proteins NS3-NS5B. This cell line was used to determine compound potency using the luciferase activity readout as a measurement of compound inhibition of replicon levels.
# Cells were grown at 37° C. in a 5% CO2 humidified incubator in DMEM (Invitrogen) with 10% FBS (HyClone), 1×NEAA (Invitrogen), 1× Pen-Strep (Invitrogen), and 500 μg/mL G418 (Invitrogen). On day 1 of the assay, cells were plated at 10,000 cells/well in white 96-well tissue culture plates (Costar) in 200 μL media lacking G418. Four hours later, once the cells have adhered, the media was removed and replaced with media (no G418) containing dose-responses of test compounds. Compounds were initially diluted in DMSO and then diluted another 200× in media to bring the final DMSO concentration down to 0.5%. The cells were incubated with test compounds for 48 hours. At the end of the incubation period, media and compound were removed from the plates and the luciferase activity was determined using Promega Renilla-Glo reagents.
# To analyze the data, the luciferase activity was plotted vs. the compound concentration, and EC50 values were determined from a 4-parameter robust fit model with the GraphPad Prism software package (GraphPad Software, Inc., San Diego, Calif.). Results are expressed as the negative decadic logarithm of the EC50 value, pEC50.
# Test compounds having a higher pEC50 value in this assay show greater inhibition of HCV genotype 1b replication.
row,Structure (SMILES),Genotype 1b
1,COC(=O)NC(C(=O)N1CC(C)CC1c1nc(-c2ccc(-c3cc(F)c(NC(=O)c4ccc(N5CCN(C(=O)C6CC6(F)F)CC5C)nc4)cc3C(F)(F)F)cc2)c[nH]1)C(C)C (mixture of isomers) [Example 1-53],D (D represents pEC50>10 (EC50<0.1 nM))
2,COC(=O)NC(C(=O)N1CC(C)CC1c1nc(-c2ccc(-c3cc(Cl)c(NC(=O)c4ccc(N5CCN(C(=O)C6CC6(F)F)CC5C)nc4)cc3C(F)(F)F)cc2)c[nH]1)C(C)C (mixture of isomers) [Example 1-55],D (D represents pEC50>10 (EC50<0.1 nM))
3,"COC(=O)NC(C(=O)N1C[C@@H](C)C[C@H]1c1nc(-c2ccc(-c3cc(Cl)c(NC(=O)c4ccc(N5CCN(C(=O)C(C)(C)C)C[C@H]5C)nc4)cc3C(F)(F)F)cc2)c[nH]1)C1CCS(=O)(=O)CC1 (single isomer, unassigned) [Example 19-6]",D (D represents pEC50>10 (EC50<0.1 nM))
4,COC(=O)N[C@H](C(=O)N1C[C@@H](C)C[C@H]1c1nc(-c2ccc(-c3cc(Cl)c(C(=O)Nc4ccc(N5CCN(C(=O)C(C)(C)C)C[C@@H]5C)nc4)cc3OC(F)(F)F)cc2)c[nH]1)C1CCOCC1 [24-1],D (D represents pEC50>10 (EC50<0.1 nM))

# Test system: HCV genotype 1a replicon
# Experiment: HCV genotype 1a replicon assay (NS3 protease activity readout)
# Type: cell-based, hepatitis C virus
# Conditions: HCV genotype 1a replicon
# Procedure, shortened: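 Genotype 1a subgenomic replicon cells (APC89, Huh7.5) were treated with compound dose-responses in G418-free medium, 0.5% DMSO final, for 48 or 72 hours at 37° C. Lysate NS3/4a protease activity measured with 15 μM FRET substrate, 20 min at 37° C (ex 340/em 509 nm); EC50 by 4-parameter fit.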
row,Structure (SMILES),Genotype 1a
1,COC(=O)NC(C(=O)N1CC(C)CC1c1nc(-c2ccc(-c3cc(F)c(NC(=O)c4ccc(N5CCN(C(=O)C6CC6(F)F)CC5C)nc4)cc3C(F)(F)F)cc2)c[nH]1)C(C)C (mixture of isomers) [Example 1-53],D (D represents pEC50>10 (EC50<0.1 nM))
2,COC(=O)NC(C(=O)N1CC(C)CC1c1nc(-c2ccc(-c3cc(Cl)c(NC(=O)c4ccc(N5CCN(C(=O)C6CC6(F)F)CC5C)nc4)cc3C(F)(F)F)cc2)c[nH]1)C(C)C (mixture of isomers) [Example 1-55],D (D represents pEC50>10 (EC50<0.1 nM))
3,"COC(=O)NC(C(=O)N1C[C@@H](C)C[C@H]1c1nc(-c2ccc(-c3cc(Cl)c(NC(=O)c4ccc(N5CCN(C(=O)C(C)(C)C)C[C@H]5C)nc4)cc3C(F)(F)F)cc2)c[nH]1)C1CCS(=O)(=O)CC1 (single isomer, unassigned) [Example 19-6]",D (D represents pEC50>10 (EC50<0.1 nM))
4,COC(=O)N[C@H](C(=O)N1C[C@@H](C)C[C@H]1c1nc(-c2ccc(-c3cc(Cl)c(C(=O)Nc4ccc(N5CCN(C(=O)C(C)(C)C)C[C@@H]5C)nc4)cc3OC(F)(F)F)cc2)c[nH]1)C1CCOCC1 [24-1],"C (C represents pEC50 between and 9 and about 10, (EC50 between 1 nM and 0.1 nM))"
5,COC[C@H]1C[C@@H](c2nc(-c3ccc(-c4ccc(C(=O)Nc5ccc(N6CCN(C(=O)C(C)(C)C)C[C@H]6C)nc5)c(Cl)c4OC(F)(F)F)cc3)c[nH]2)N(C(=O)[C@@H](NC(=O)OC)C2CCOCC2)C1 [Example 25-6],"C (C represents pEC50 between and 9 and about 10, (EC50 between 1 nM and 0.1 nM))"
6,COC[C@H]1C[C@@H](c2nc(-c3ccc(-c4ccc(C(=O)Nc5ccc(N6CCN(C(=O)C(C)(C)C)C[C@H]6C)nc5)c(Cl)c4OC(F)(F)F)cc3)c[nH]2)N(C(=O)[C@@H](NC(=O)OC)C(C)C)C1 [Example 25-7],B (B represents pEC50 between 8 and 9 (EC50 between 1 and 10 nM))
7,COC(=O)N[C@H](C(=O)N1C[C@H](O)C[C@H]1c1nc(-c2ccc(-c3ccc(NC(=O)c4ccc(N5CCN(C(=O)[C@]6(C)CCCN6C(=O)OC)C[C@H]5C)nc4)cc3)cc2)c[nH]1)C(C)C [Example 26-1],A (A represents a pEC50 value between 6 and 8 (EC50 between 1 μM and 10 nM))
8,COC(=O)N[C@H](C(=O)N1C[C@@H](O)C[C@H]1c1nc(-c2ccc(-c3ccc(NC(=O)c4ccc(N5CCN(C(=O)c6c[nH]cn6)C[C@H]5C)nc4)cc3)cc2)c[nH]1)C(C)C [Example 26-2],B (B represents pEC50 between 8 and 9 (EC50 between 1 and 10 nM))
9,CNC(=O)N1CCN(c2ccc(C(=O)Nc3ccc(-c4ccc(-c5c[nH]c([C@@H]6C[C@H](O)CN6C(=O)[C@@H](NC(=O)OC)C(C)C)n5)cc4)cc3)cn2)[C@H](C)C1 [Example 26-3],B (B represents pEC50 between 8 and 9 (EC50 between 1 and 10 nM))
10,COC(=O)N[C@H](C(=O)N1C[C@@H](O)C[C@H]1c1nc(-c2ccc(-c3cc(F)c(NC(=O)c4ccc(N5CCN(C(=O)C(C)(C)C)C[C@H]5C)nc4)cc3OC(F)(F)F)cc2)c[nH]1)C(C)C [Example 26-6],"C (C represents pEC50 between and 9 and about 10, (EC50 between 1 nM and 0.1 nM))"
11,COC(=O)N[C@H](C(=O)N1C[C@@H](O)C[C@H]1c1nc(-c2ccc(-c3cc(Cl)c(NC(=O)c4ccc(N5CCN(C(=O)C(C)(C)C)C[C@H]5C)nc4)cc3OC(F)(F)F)cc2)c[nH]1)C(C)C [Example 26-8],"C (C represents pEC50 between and 9 and about 10, (EC50 between 1 nM and 0.1 nM))"
12,COC(=O)N[C@H](C(=O)N1C[C@@H](O)C[C@H]1c1nc(-c2ccc(-c3cc(Cl)c(NC(=O)c4ccc(N5CCN(C(=O)C(C)(C)CO)C[C@H]5C)nc4)cc3OC(F)(F)F)cc2)c[nH]1)C(C)C [Example 26-9],"C (C represents pEC50 between and 9 and about 10, (EC50 between 1 nM and 0.1 nM))"
13,COC(=O)N[C@H](C(=O)N1C[C@@H](O)C[C@H]1c1nc(-c2ccc(-c3cc(Cl)c(NC(=O)c4ccc(N5CCN(C(=O)C(C)(C)C)C[C@H]5C)nc4)cc3OC(F)(F)F)cc2)c[nH]1)C1CCOCC1 [Example 26-10],A (A represents a pEC50 value between 6 and 8 (EC50 between 1 μM and 10 nM))
14,COC(=O)N[C@H](C(=O)N1C[C@@H](O)C[C@H]1c1nc(-c2ccc(-c3cc(Cl)c(NC(=O)c4ccc(N5CCN(C(=O)C(C)(C)CO)C[C@H]5C)nc4)cc3OC(F)(F)F)cc2)c[nH]1)C1CCOCC1 [Example 26-11],A (A represents a pEC50 value between 6 and 8 (EC50 between 1 μM and 10 nM))
15,COC(=O)N[C@H](C(=O)N1C[C@@H](OC)C[C@H]1c1nc(-c2ccc(-c3cc(F)c(NC(=O)c4ccc(N5CCN(C(=O)[C@H]6CC6(C)C)C[C@H]5C)nc4)cc3OC(F)(F)F)cc2)c[nH]1)C(C)C [Example 27-4],D (D represents pEC50>10 (EC50<0.1 nM))
16,COC(=O)N[C@H](C(=O)N1C[C@@H](OC)C[C@H]1c1nc(-c2ccc(-c3ccc(NC(=O)c4ccc(N5CCN(C(=O)C(C)(C)CO)C[C@H]5C)nc4)cc3OC(F)(F)F)cc2)c[nH]1)C(C)C [Example 27-7],D (D represents pEC50>10 (EC50<0.1 nM))
17,COC(=O)N[C@H](C(=O)N1C[C@@H](OC)C[C@H]1c1nc(-c2ccc(-c3ccc(NC(=O)c4ccc(N5CCN(C(=O)C(C)(C)CO)C[C@H]5C)nc4)cc3OC(F)(F)F)cc2)c[nH]1)C1CCOCC1 [Example 28-4],D (D represents pEC50>10 (EC50<0.1 nM))
18,COC(=O)N[C@H](C(=O)N1C[C@@H](OC)C[C@H]1c1nc(-c2ccc(-c3cc(Cl)c(NC(=O)c4ccc(N5C[C@H](C)N(C(=O)C(C)(C)CO)C[C@H]5C)nc4)cc3OC(F)(F)F)cc2)c[nH]1)C1CCOCC1 [Example 28-5],D (D represents pEC50>10 (EC50<0.1 nM))
19,CNC(=O)N1C[C@@H](C)N(c2ccc(C(=O)Nc3cc(OC(F)(F)F)c(-c4ccc(-c5c[nH]c([C@@H]6C[C@H](OC)CN6C(=O)[C@@H](NC(=O)OC)C6CCOCC6)n5)cc4)cc3Cl)cn2)C[C@@H]1C [Example 28-8],D (D represents pEC50>10 (EC50<0.1 nM))
20,COC(=O)N[C@H](C(=O)N1C[C@@H](OC)C[C@H]1c1nc(-c2ccc(-c3cc(Cl)c(NC(=O)c4ccc(N5C[C@H](C)N(C(=O)NC(C)(C)C)C[C@H]5C)nc4)cc3OC(F)(F)F)cc2)c[nH]1)C1CCOCC1 [Example 28-9],D (D represents pEC50>10 (EC50<0.1 nM))
21,COC(=O)N[C@H](C(=O)N1C[C@@H](OC)C[C@H]1c1nc(-c2ccc(-c3cc(Cl)c(NC(=O)c4ccc(N5C[C@H](C)N(C(=O)C6CC6)C[C@H]5C)nc4)cc3OC(F)(F)F)cc2)c[nH]1)C1CCOCC1 [Example 28-10],D (D represents pEC50>10 (EC50<0.1 nM))
22,COC(=O)N[C@H](C(=O)N1C[C@@H](OC)C[C@H]1c1nc(-c2ccc(-c3cc(Cl)c(NC(=O)c4ccc(N5CCN(C(=O)NC(C)(C)C)C[C@H]5C)nc4)cc3OC(F)(F)F)cc2)c[nH]1)C1CCOCC1 [Example 28-12],D (D represents pEC50>10 (EC50<0.1 nM))
23,CNC(=O)N1CCN(c2ccc(C(=O)Nc3cc(OC(F)(F)F)c(-c4ccc(-c5c[nH]c([C@@H]6C[C@H](OC)CN6C(=O)[C@@H](NC(=O)OC)C6CCOCC6)n5)cc4)cc3Cl)cn2)[C@H](C)C1 [Example 28-13],D (D represents pEC50>10 (EC50<0.1 nM))
24,COC(=O)N[C@H](C(=O)N1C[C@@H](OC)C[C@H]1c1nc(-c2ccc(-c3cc(Cl)c(NC(=O)c4ccc(N5CCN(C(=O)C(C)(C)C(=O)O)C[C@H]5C)nc4)cc3OC(F)(F)F)cc2)c[nH]1)C1CCOCC1 [Example 28-23],"C (C represents pEC50 between and 9 and about 10, (EC50 between 1 nM and 0.1 nM))"
25,COC(=O)NC(C(=O)N1CC(F)CC1c1nc(-c2ccc(-c3cc(Cl)c(NC(=O)c4ccc(N5CCN(C(=O)C(C)(C)C)CC5C)nc4)cc3OC(F)(F)F)cc2)c[nH]1)C1CCOCC1 (centres unmarked) [Example 29-1],D (D represents pEC50>10 (EC50<0.1 nM))
26,COC(=O)NC(C(=O)N1CC(F)CC1c1nc(-c2ccc(-c3cc(Cl)c(NC(=O)c4ccc(N5CCN(C(=O)C(C)(C)C)CC5C)nc4)cc3OC(F)(F)F)cc2)c[nH]1)C(C)C (centres unmarked) [Example 29-2],"C (C represents pEC50 between and 9 and about 10, (EC50 between 1 nM and 0.1 nM))"
27,COC(=O)NC(C(=O)N1CC(F)CC1c1nc(-c2ccc(-c3cc(Cl)c(NC(=O)c4ccc(N5CCN(C(=O)C(C)(C)CO)CC5C)nc4)cc3OC(F)(F)F)cc2)c[nH]1)C(C)C (centres unmarked) [Example 29-3],"C (C represents pEC50 between and 9 and about 10, (EC50 between 1 nM and 0.1 nM))"
28,COC(=O)NC(C(=O)N1CC(F)CC1c1nc(-c2ccc(-c3cc(Cl)c(NC(=O)c4ccc(N5CCN(C(=O)C(C)(C)CO)CC5C)nc4)cc3OC(F)(F)F)cc2)c[nH]1)C1CCOCC1 (centres unmarked) [Example 29-4],D (D represents pEC50>10 (EC50<0.1 nM))
